Results from paper PMC3048208 (British Journal of Cancer, 2011).
“Also recorded” adds a separate entry of the source. Where a name gives a salt, the structure may show the parent alone. Read-outs that look alike come from different tables or passages of the source.

Columns and labels:
[1] = test system: xenograft models of colon (HCT-116), ovarian (A2780) and prostate (PC3, DU145) carcinomas; set-up: method as in Novotny-Diermayr et al, 2010; settings: ref Novotny-Diermayr et al, 2010, cited from earlier work
[2] = test system: acetylated histone H3 (AcH3) in PBMCs; experiment: AcH3 levels in PBMCs by western blot; type: in vivo, human
Protocol: Based on the preclinical data showing parallel changes in AcH3 in PBMCs and tumour tissue, PBMCs were selected for study in the phase I trial ([Novotny-Diermayr et al, 2008]; [Yong et al, 2009]).
Whole blood samples for PD evaluation were taken in cycle 1, days 1 and 15 at pre-dose followed by 3 and 24 h post-dose. For each sample, blood was collected at room temperature in an 8-ml BD Vacutainer CPT tube (Becton, Dickson and Company, Franklin Lakes, NJ, USA). Blood samples were processed in a refrigerated centrifuge within 30 min of collection to preserve histone acetylation status. PBMCs were extracted from blood, processed to pellet form and stored at −80°C. Levels of AcH3 in PBMCs were determined using a validated western blot technique ([Novotny-Diermayr et al, 2008]).

[3] = test system: HCT-116 cells; set-up: method as in Novotny-Diermayr et al, 2010; settings: ref Novotny-Diermayr et al, 2010; cited from earlier work
[4] = set-up: method as in Novotny-Diermayr et al, 2010; settings: animal pre-clinical models; ref Novotny-Diermayr et al, 2010; cited from earlier work
[5] = test system: dog; settings: 3 days per week in a 28-day cycle; cited from earlier work
[6] = Plasma pharmacokinetics of SB939 in patients, LC–MS/MS, non-compartmental; type: in vivo, human; settings: for AUC(0-inf) / Cmax / half-life / Tmax: human, plasma
Protocol: Pre-dose PK assessment was also performed on day 15 of treatment.
Whole blood was collected into a 3-ml blood tubes containing K2EDTA anti-coagulant and centrifuged at 1000 g for 10 min at 4°C. Plasma was kept as an aliquot and frozen at −80°C. […] The samples were centrifuged at 1200 g for 10 min at 4°C, and the supernatant was stored at −80°C until analysis at MPI Research, Mattawan, MI, USA. Pharmacokinetic parameters were calculated by a non-compartmental method using WinNonlin 4.0 software (Pharsight Corporation, Mountain View, CA, USA). Peak plasma concentration (Cmax) and time to peak concentration (Tmax) were estimated from the plasma drug concentration–time curve. The elimination half-life (T1/2) during the log-linear terminal phase was calculated from the elimination rate constant determined by a linear regression analysis. The area under the concentration time curve extrapolated to infinity (AUC0−∞) was calculated by the log-linear trapezoidal method for the observed values, with extrapolation to infinity including at least three points on the terminal phase.

[7] = test system: other zinc-binding enzymes; set-up: method as in Novotny-Diermayr et al, 2010; settings: in vitro; ref Novotny-Diermayr et al, 2010; cited from earlier work
[8] = test system: cancer cells; set-up: method as in Novotny-Diermayr et al, 2010; settings: ref Novotny-Diermayr et al, 2010; cited from earlier work
[9] = test system: wide variety of cell lines; set-up: method as in Novotny-Diermayr et al, 2010; settings: in vitro; ref Novotny-Diermayr et al, 2010; cited from earlier work
[10] = oral, 10 mg, Day 1, dose level 1, 10 mg, 3 days every 2 weeks
[11] = oral, 10 mg, Day 1, dose level 2, 10 mg
[12] = oral, 10 mg, Day 3 or 5, dose level 1, 10 mg, 3 days every 2 weeks
[13] = oral, 10 mg, Day 3 or 5, dose level 2, 10 mg
[14] = oral, 20 mg, Day 1, dose level 3, 20 mg
[15] = oral, 20 mg, Day 3 or 5, dose level 3, 20 mg
[16] = oral, 30 mg, Day 1, dose level 4, 30 mg
[17] = oral, 30 mg, Day 3 or 5, dose level 4, 30 mg
[18] = oral, 50 mg, Day 1, dose level 5, 50 mg
[19] = oral, 50 mg, Day 3 or 5, dose level 5, 50 mg
[20] = oral, 60 mg, Day 1, dose level 5.5, 60 mg
[21] = oral, 60 mg, Day 3 or 5, dose level 5.5, 60 mg
[22] = oral, 70 mg, Day 1, dose level 6, 70 mg
[23] = oral, 70 mg, Day 3 or 5, dose level 6, 70 mg
[24] = oral, 90 mg, Day 1, dose level 7, 90 mg
[25] = oral, 90 mg, Day 3 or 5, dose level 7, 90 mg

For `CCCCc1nc2cc(/C=C/C(=O)NO)ccc2n1CCN(CC)CC` [SB939, 3-[2-butyl-1-(2-diethylaminoethyl)-1H-benzoimidazol-5-yl]-N-hydroxyacrylami-hydrochloride], the Anti-tumour efficacy ([1]; HCT-116, A2780, PC3, DU145 xenografts, MV4-11, HL-60 and B cell lymphoma murine models) is listed as “dose-dependent anti-tumour efficacy”, the “Drug accumulation and inhibition of histone deacetylation in tumour tissues compared with vorinostat” value ([1]; preclinical experiments) is listed as “prolonged drug accumulation and more sustained inhibition of histone deacetylation” and the “Dose–PD relationship of AcH3” value ([2]; 10 to 90 mg) is listed as “no clear dose–PD relationship”. The “Change in AcH3 in PBMCs” value ([2]; cycle 1, 3 h or 24 h post-treatment) was “Increases in AcH3 were seen”, the “Effectiveness compared with vorinostat” value [3] was “more effective than vorinostat” and the “Increase in bioavailability compared with vorinostat” value [4] was > 4 fold. For the same compound, the “Longer half-life compared with vorinostat” value [4] was 3.3 fold, the “No observed adverse effect level” value [5] was 60 mg m^−2 per day and the “Dose proportionality of mean AUC” value ([6]; between 10 and 90 mg) was “dose-proportional increases in AUC; also recorded: increased dose proportionally”. For the same compound, the “Accumulation on Day 5 compared with Day 1” value ([6]; daily x 5 dosing) was “no accumulation”, the AUC(0-inf) [6, 10] was 127 ng·h/mL and the Cmax [6, 10] was 14.6 ng/mL. It also gave a half-life ([6]; oral, 10 mg, Day 1, dose level 1, 10 mg, 3 days every 2 weeks, read-out: T1/2, mean (converted)) of 7.1 h, a Tmax ([6]; oral, 10 mg, Day 1, dose level 1, 10 mg, 3 days every 2 weeks, read-out: Tmax, mean) of 2.5 h and an AUC(0-inf) [6, 11] of 137 ng·h/mL. For the same compound, the Cmax [6, 11] was 19.5 ng/mL, the half-life ([6]; oral, 10 mg, Day 1, dose level 2, 10 mg, read-out: T1/2, mean (converted)) was 8.6 h and the Tmax ([6]; oral, 10 mg, Day 1, dose level 2, 10 mg, read-out: Tmax, mean) was 1.1 h. It also gave an AUC(0-inf) [6, 12] of 147 ng·h/mL, a Cmax [6, 12] of 18.3 ng/mL and a half-life ([6]; oral, 10 mg, Day 3 or 5, dose level 1, 10 mg, 3 days every 2 weeks, read-out: T1/2, mean (converted)) of 8.3 h. The Tmax ([6]; oral, 10 mg, Day 3 or 5, dose level 1, 10 mg, 3 days every 2 weeks, read-out: Tmax, mean) was 1.3 h, the AUC(0-inf) [6, 13] was 188 ng·h/mL and the Cmax [6, 13] was 23.3 ng/mL. For the same compound, the half-life ([6]; oral, 10 mg, Day 3 or 5, dose level 2, 10 mg, read-out: T1/2, mean (converted)) was 8.1 h, the Tmax ([6]; oral, 10 mg, Day 3 or 5, dose level 2, 10 mg, read-out: Tmax, mean) was 1.3 h and the AUC(0-inf) [6, 14] was 244 ng·h/mL. It also gave a Cmax [6, 14] of 45.9 ng/mL, a half-life ([6]; oral, 20 mg, Day 1, dose level 3, 20 mg, read-out: T1/2, mean (converted)) of 5.9 h and a Tmax ([6]; oral, 20 mg, Day 1, dose level 3, 20 mg, read-out: Tmax, mean) of 1.5 h. The AUC(0-inf) [6, 15] was 424 ng·h/mL, the Cmax [6, 15] was 51.3 ng/mL and the half-life ([6]; oral, 20 mg, Day 3 or 5, dose level 3, 20 mg, read-out: T1/2, mean (converted)) was 7.7 h. The Tmax ([6]; oral, 20 mg, Day 3 or 5, dose level 3, 20 mg, read-out: Tmax, mean) was 1.6 h, the AUC(0-inf) [6, 16] was 384 ng·h/mL and the Cmax [6, 16] was 55.8 ng/mL. The half-life ([6]; oral, 30 mg, Day 1, dose level 4, 30 mg, read-out: T1/2, mean (converted)) was 8.6 h, the Tmax ([6]; oral, 30 mg, Day 1, dose level 4, 30 mg, read-out: Tmax, mean) was 1.8 h and the AUC(0-inf) [6, 17] was 544 ng·h/mL. The Cmax [6, 17] was 74.3 ng/mL, the half-life ([6]; oral, 30 mg, Day 3 or 5, dose level 4, 30 mg, read-out: T1/2, mean (converted)) was 8.8 h and the Tmax ([6]; oral, 30 mg, Day 3 or 5, dose level 4, 30 mg, read-out: Tmax, mean) was 1.6 h. For the same compound, the AUC(0-inf) [6, 18] was 661 ng·h/mL, the Cmax [6, 18] was 124 ng/mL and the half-life ([6]; oral, 50 mg, Day 1, dose level 5, 50 mg, read-out: T1/2, mean (converted)) was 5.6 h. The Tmax ([6]; oral, 50 mg, Day 1, dose level 5, 50 mg, read-out: Tmax, mean) was 1.6 h, the AUC(0-inf) [6, 19] was 794 ng·h/mL and the Cmax [6, 19] was 101 ng/mL. The half-life ([6]; oral, 50 mg, Day 3 or 5, dose level 5, 50 mg, read-out: T1/2, mean (converted)) was 8.9 h, the AUC(0-inf) [6, 20] was 1030 ng·h/mL and the Cmax [6, 20] was 210 ng/mL. It also gave a half-life ([6]; oral, 60 mg, Day 1, dose level 5.5, 60 mg, read-out: T1/2, mean (converted)) of 6.7 h, a Tmax ([6]; oral, 60 mg, Day 1, dose level 5.5, 60 mg, read-out: Tmax, mean) of 1.2 h and an AUC(0-inf) [6, 21] of 1630 ng·h/mL. The Cmax [6, 21] was 262 ng/mL, the half-life ([6]; oral, 60 mg, Day 3 or 5, dose level 5.5, 60 mg, read-out: T1/2, mean (converted)) was 6.9 h and the Tmax ([6]; oral, 60 mg, Day 3 or 5, dose level 5.5, 60 mg, read-out: Tmax, mean) was 1.3 h. For the same compound, the AUC(0-inf) [6, 22] was 1050 ng·h/mL, the Cmax [6, 22] was 178 ng/mL and the half-life ([6]; oral, 70 mg, Day 1, dose level 6, 70 mg, read-out: T1/2, mean (converted)) was 7 h. The Tmax ([6]; oral, 70 mg, Day 1, dose level 6, 70 mg, read-out: Tmax, mean) was 1.6 h, the AUC(0-inf) [6, 23] was 1130 ng·h/mL and the Cmax [6, 23] was 160 ng/mL. The half-life ([6]; oral, 70 mg, Day 3 or 5, dose level 6, 70 mg, read-out: T1/2, mean (converted)) was 6.4 h, the Tmax ([6]; oral, 70 mg, Day 3 or 5, dose level 6, 70 mg, read-out: Tmax, mean) was 1.5 h and the AUC(0-inf) [6, 24] was 1130 ng·h/mL. It also gave a Cmax [6, 24] of 229 ng/mL, a half-life ([6]; oral, 90 mg, Day 1, dose level 7, 90 mg, read-out: T1/2, mean (converted)) of 6.4 h and a Tmax ([6]; oral, 90 mg, Day 1, dose level 7, 90 mg, read-out: Tmax, mean) of 1 h. For the same compound, the AUC(0-inf) [6, 25] was 1230 ng·h/mL, the Cmax [6, 25] was 116 ng/mL and the half-life ([6]; oral, 90 mg, Day 3 or 5, dose level 7, 90 mg, read-out: T1/2, mean (converted)) was 6.1 h. It also gave a Tmax ([6]; oral, 90 mg, Day 3 or 5, dose level 7, 90 mg, read-out: Tmax, mean) of 1.5 h, a Tmax ([6]; po, 10 to 90 mg oral, read-out: Tmax, range over dose levels) of 1 to 2.5 h and a half-life ([6]; po, 10 to 90 mg oral, read-out: Elimination (terminal) half-life, range over dose levels) of 5.6 to 8.9 h. For the same compound, the “Effects on other zinc-binding enzymes” value [7] was “no effects”, the “Immunoblot changes after treatment” value [8] was “accumulation of acetylated histone H3 (AcH3) and acetylated α-tubulin, as well as increased expression levels of the cyclin dependant kinase inhibitor p21” and the Anti-proliferative activities [9] was “significant anti-proliferative activities”.
